Reference: patent publication US6403534B1, “Uracil compounds and use thereof” (Sumitomo Chemical Company, Limited, priority 2000, dated 2002)

What was measured:
[1] = system: blackgrass; test: Test Example 3: foliar treatment of field; type: in vivo, Alopecurus myosuroides; parameters: key: “0” means that there was no or little difference in the degree of germination or growth between the treated and the untreated tested plants at the time of examination; “10” means that the test plants died completely or their germination or growth was completely inhibited; conditions: index 0 to 10, 16 days after application
Procedure: (§1) Test for Foliar Treatment of Field A cylindrical plastic pot having a diameter of 10 cm and a depth of 10 cm was filled with soil and then seeded with ivyleaf morningglory and blackgrass. These test plants were grown in a greenhouse for 10 days. Then, each of the test compounds was formulated into an emulsifiable concentrate according to Formulation Example 2 and then diluted to the prescribed amount with water containing a spreading agent and the dilution was uniformly sprayed over the foliage of the test plants with a sprayer at a rate of 1000 liters per hectare. After the application, the test plants were grown in the greenhouse for 16 days, and the herbicidal activity was examined.

[2] = system: giant foxtail; test: Test Example 4: soil surface treatment of field; type: in vivo, Setaria faberi; parameters: key: “0” means that there was no or little difference in the degree of germination or growth between the treated and the untreated tested plants at the time of examination; “10” means that the test plants died completely or their germination or growth was completely inhibited; conditions: index 0 to 10, 12 days after application
Excerpt: (§2) Test for Soil Surface Treatment of Field A plastic pot having an area of (26.5×19) cm^2 and a depth of 7 cm was filled with soil and then seeded with ivyleaf morningglory, velvetleaf, barnyardgrass and giant foxtail. Then, each of the test compounds was formulated into an emulsifiable concentrate according to Formulation Example 2 and then diluted to the prescribed amount with water, and the dilution was uniformly sprayed over the surface of the soil with a sprayer at a rate of 1000 liters per hectare. After the application, the test plants were grown in the greenhouse for 12 days, and the herbicidal activity was examined. The herbicidal activity was evaluated by the same method as in Test Example 3.

[3] = system: barnyardgrass; test: Test Example 4: soil surface treatment of field; type: in vivo, Echinochloa crus-galli; parameters: key: “0” means that there was no or little difference in the degree of germination or growth between the treated and the untreated tested plants at the time of examination; “10” means that the test plants died completely or their germination or growth was completely inhibited; conditions: index 0 to 10, 12 days after application
Excerpt: as §2

[4] = system: velvetleaf; test: Test Example 4: soil surface treatment of field; type: in vivo, Abutilon theophrasti; parameters: key: “0” means that there was no or little difference in the degree of germination or growth between the treated and the untreated tested plants at the time of examination; “10” means that the test plants died completely or their germination or growth was completely inhibited; conditions: index 0 to 10, 12 days after application
Excerpt: as §2

[5] = system: ivyleaf morningglory; test: Test Example 4: soil surface treatment of field; type: in vivo, Ipomoea hederacea; parameters: key: “0” means that there was no or little difference in the degree of germination or growth between the treated and the untreated tested plants at the time of examination; “10” means that the test plants died completely or their germination or growth was completely inhibited; conditions: index 0 to 10, 12 days after application
Excerpt: as §2

[6] = system: ivyleaf morningglory; test: Test Example 3: foliar treatment of field; type: in vivo, Ipomoea hederacea; parameters: key: “0” means that there was no or little difference in the degree of germination or growth between the treated and the untreated tested plants at the time of examination; “10” means that the test plants died completely or their germination or growth was completely inhibited; conditions: index 0 to 10, 16 days after application
Procedure: as §1

[7] = system: barnyardgrass; test: Test Example 1: foliar treatment of field; type: in vivo, Echinochloa crus-galli; conditions: foliar spray, 125 g/ha, plants grown 14 days before, examined 16 days after application
Procedure: (§3) Test for Foliar Treatment of Field
(§4) A cylindrical plastic pot having a diameter of 10 cm and a depth of 10 cm was filled with soil and then seeded with barnyardgrass, blackgrass, ivyleaf morningglory and velvetleaf These test plants were grown in a greenhouse for 14 days. Then, each of compounds 1-2, 1-3, 1-7, 1-19 and 1-28 was formulated into an emulsifiable concentrate according to Formulation Example 2 and then diluted to the prescribed amount with water containing a spreading agent and the dilution was uniformly sprayed over the foliage of the test plants with a sprayer at a rate of 1000 liters per hectare. After the application, the test plants were grown in the greenhouse for 16 days, and the herbicidal activity was determined.

[8] = system: velvetleaf; test: Test Example 2: soil surface treatment of field; type: in vivo, Abutilon theophrasti; conditions: soil surface spray, 500 g/ha, examined 19 days after application
Excerpt: (§5) Test for Soil Surface Treatment of Field
(§6) A cylindrical plastic pot having a diameter of 10 cm and a depth of 10 cm was filled with soil and then seeded with barnyardgrass, blackgrass, ivyleaf morningglory and velvetleaf. Then, each of compounds 1-2, 1-3, 1-7, 1-19 and 1-28 was formulated into an emulsifiable concentrate according to Formulation Example 2 and then diluted to the prescribed amount with water, and the dilution was uniformly sprayed over the surface of the soil with a sprayer at a rate of 1000 liters per hectare. After the application, the test plants were grown in the greenhouse for 19 days, and the herbicidal activity was examined.

[9] = system: ivyleaf morningglory; test: Test Example 2: soil surface treatment of field; type: in vivo, Ipomoea hederacea; conditions: soil surface spray, 500 g/ha, examined 19 days after application
Excerpt: as §5, §6

[10] = system: blackgrass; test: Test Example 1: foliar treatment of field; type: in vivo, Alopecurus myosuroides; conditions: foliar spray, 125 g/ha, plants grown 14 days before, examined 16 days after application
Procedure: as §3, §4

[11] = system: barnyardgrass; test: Test Example 2: soil surface treatment of field; type: in vivo, Echinochloa crus-galli; conditions: soil surface spray, 500 g/ha, examined 19 days after application
Excerpt: as §5, §6

[12] = system: blackgrass; test: Test Example 2: soil surface treatment of field; type: in vivo, Alopecurus myosuroides; conditions: soil surface spray, 500 g/ha, examined 19 days after application
Excerpt: as §5, §6

[13] = system: velvetleaf; test: Test Example 1: foliar treatment of field; type: in vivo, Abutilon theophrasti; conditions: foliar spray, 125 g/ha, plants grown 14 days before, examined 16 days after application
Procedure: as §3, §4

[14] = system: ivyleaf morningglory; test: Test Example 1: foliar treatment of field; type: in vivo, Ipomoea hederacea; conditions: foliar spray, 125 g/ha, plants grown 14 days before, examined 16 days after application
Procedure: as §3, §4

SMILES	Herbicidal activity Blackgrass ([1]; dosage 8 g/ha)	Herbicidal activity Blackgrass ([1]; dosage 32 g/ha)	Herbicidal activity Blackgrass ([1]; dosage 125 g/ha)	Herbicidal activity Giant foxtail ([2]; dosage 32 g/ha)	Herbicidal activity Giant foxtail ([2]; dosage 125 g/ha)	Herbicidal activity Giant foxtail ([2]; dosage 500 g/ha)	Herbicidal activity Barnyard grass ([3]; dosage 32 g/ha)	Herbicidal activity Barnyard grass ([3]; dosage 125 g/ha)	Herbicidal activity Barnyard grass ([3]; dosage 500 g/ha)	Herbicidal activity Velvet leaf ([4]; dosage 32 g/ha)	Herbicidal activity Velvet leaf ([4]; dosage 125 g/ha)	Herbicidal activity Velvet leaf ([4]; dosage 500 g/ha)	herbicidal activity (growth of barnyardgrass) [7]	herbicidal activity (germination of velvetleaf) [8]	herbicidal activity (germination of ivyleaf morningglory) [9]	herbicidal activity (growth of blackgrass) [10]	herbicidal activity (germination of barnyardgrass) [11]	herbicidal activity (germination of blackgrass) [12]	herbicidal activity (growth of velvetleaf) [13]	herbicidal activity (growth of ivyleaf morningglory) [14]	also measured
C=CCOC(=O)C(C)(C)Oc1cc(-n2c(=O)cc(C(F)(F)F)n(C)c2=O)c(F)cc1Cl [Comparative compound A, reference compound]	3	4	6	4	10	10	1	7	10	3	10	10	–	–	–	–	–	–	–	–	Herbicidal activity Ivyleaf morningglory ([5]; dosage 32 g/ha): 0; Herbicidal activity Ivyleaf morningglory ([5]; dosage 125 g/ha): 4; Herbicidal activity Ivyleaf morningglory ([5]; dosage 500 g/ha): 8; Herbicidal activity Ivyleaf morningglory ([6]; dosage 8 g/ha): 7; Herbicidal activity Ivyleaf morningglory ([6]; dosage 32 g/ha): 10; Herbicidal activity Ivyleaf morningglory ([6]; dosage 125 g/ha): 10
COC(=O)C1(Oc2cc(-n3c(=O)cc(C(F)(F)F)n(C)c3=O)c(F)cc2Cl)CC1 [Compound 1-2, methyl 1-[2-chloro-4-fluoro-5-{3-methyl-2,6-dioxo-4-(trifluoro-methyl)-1,2,3,6-tetrahydropyrimidin-1-yl}phenoxy]cyclo-propanecarboxylate]	–	–	–	–	–	–	–	–	–	–	–	–	completely controlled	completely controlled	completely controlled	completely controlled	completely controlled	completely controlled	completely controlled	completely controlled	–
CCOC(=O)C1(Oc2cc(-n3c(=O)cc(C(F)(F)F)n(C)c3=O)c(F)cc2Cl)CC1 [Compound 1-3, ethyl 1-[2-chloro-4-fluoro-5-{3-methyl-2,6-dioxo-4-(trifluoromethyl)-1,2,3,6-tetrahydropyrimidin-1-yl}phenoxy]cyclopropanecarboxylate]	–	–	–	–	–	–	–	–	–	–	–	–	completely controlled	completely controlled	completely controlled	completely controlled	completely controlled	completely controlled	completely controlled	completely controlled	–
C=CCOC(=O)C1(Oc2cc(-n3c(=O)cc(C(F)(F)F)n(C)c3=O)c(F)cc2Cl)CC1 [Compound 1-7]	5	6	10	10	10	10	6	10	10	10	10	10	completely controlled	completely controlled	completely controlled	completely controlled	completely controlled	completely controlled	completely controlled	completely controlled	Herbicidal activity Ivyleaf morningglory ([5]; dosage 32 g/ha): 2; Herbicidal activity Ivyleaf morningglory ([5]; dosage 125 g/ha): 10; Herbicidal activity Ivyleaf morningglory ([5]; dosage 500 g/ha): 10; Herbicidal activity Ivyleaf morningglory ([6]; dosage 8 g/ha): 10; Herbicidal activity Ivyleaf morningglory ([6]; dosage 32 g/ha): 10; Herbicidal activity Ivyleaf morningglory ([6]; dosage 125 g/ha): 10
CSC(=O)C1(Oc2cc(-n3c(=O)cc(C(F)(F)F)n(C)c3=O)c(F)cc2Cl)CC1 [Compound 1-19]	–	–	–	–	–	–	–	–	–	–	–	–	completely controlled	completely controlled	completely controlled	completely controlled	completely controlled	completely controlled	completely controlled	completely controlled	–
COC(=O)C(CC(C)C)NC(=O)C1(Oc2cc(-n3c(=O)cc(C(F)(F)F)n(C)c3=O)c(F)cc2Cl)CC1 (stereo not shown) [Compound 1-28]	–	–	–	–	–	–	–	–	–	–	–	–	completely controlled	completely controlled	completely controlled	completely controlled	completely controlled	completely controlled	completely controlled	completely controlled	–
